Like-named read-outs stand apart in the source and are kept apart here.
Key:
Aurora A = settings: read-out: IC50 Aurora A; cited from earlier work
10 other kinases = settings: read-out: IC50 10 other kinases; cited from earlier work
MEKK2 [1] = target: T1, MEKK2 (Homo sapiens, UniProt Q9Y2U5); assay: MEKK2 intrinsic ATPase activity assay; assay type: biochemical
T1 sequence (Q9Y2U5 1-619): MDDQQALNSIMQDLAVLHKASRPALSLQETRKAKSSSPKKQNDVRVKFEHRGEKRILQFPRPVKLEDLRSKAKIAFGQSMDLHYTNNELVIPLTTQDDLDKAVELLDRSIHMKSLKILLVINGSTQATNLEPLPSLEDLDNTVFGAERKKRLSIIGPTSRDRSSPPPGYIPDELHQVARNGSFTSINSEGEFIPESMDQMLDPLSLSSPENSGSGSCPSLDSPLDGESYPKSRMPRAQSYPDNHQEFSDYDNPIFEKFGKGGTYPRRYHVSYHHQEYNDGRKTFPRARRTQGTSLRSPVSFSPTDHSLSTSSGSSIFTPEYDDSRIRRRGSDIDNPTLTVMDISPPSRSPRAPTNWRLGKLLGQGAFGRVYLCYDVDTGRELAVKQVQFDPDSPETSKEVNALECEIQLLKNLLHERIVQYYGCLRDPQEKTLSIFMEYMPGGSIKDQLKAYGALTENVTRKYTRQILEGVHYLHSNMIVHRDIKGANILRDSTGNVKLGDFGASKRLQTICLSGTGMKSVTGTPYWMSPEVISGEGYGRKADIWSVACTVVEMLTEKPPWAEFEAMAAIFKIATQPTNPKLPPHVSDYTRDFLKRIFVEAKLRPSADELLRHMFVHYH

MEKK2 [2] = target: T1, MEKK2; assay: MEKK2 transphosphorylation slot blot assay using MKK6 as a substrate; assay type: biochemical
Aurora B [3] = settings: read-out: IC50 Aurora B; cited from earlier work
Abl (T315I) mutant = settings: read-out: IC50 Abl (T315I) mutant; cited from earlier work
JAK3 = settings: read-out: IC50 JAK3; cited from earlier work
Aurora B [4] = settings: read-out: IC50 Aurora B; cited from earlier work; remark: listed apart in the source
CDK1 = settings: read-out: IC50 CDK1; cited from earlier work
CDK3 = settings: read-out: IC50 CDK3; cited from earlier work
CDK2 = settings: read-out: IC50 CDK2; cited from earlier work

SMILES | IC50 (Aurora A) | IC50 (10 other kinases) | IC50 (MEKK2 [1]) | IC50 (MEKK2 [2]) | IC50 (Aurora B [3]) | IC50 (Abl (T315I) mutant) | IC50 (JAK3) | IC50 (Aurora B [4]) | IC50 (CDK1) | IC50 (CDK3) | IC50 (CDK2)
O=C(Nc1c[nH]nc1-c1nc2ccc(CN3CCOCC3)cc2[nH]1)NC1CC1 [AT9283] | […] | […] | […] | 4.7 ± 0.9 nM | […] | 4 nM | […] | – | – | – | –
NC(=O)Nc1cc(-c2cccc(F)c2)sc1C(=O)N[C@H]1CCCNC1 [AZD7762] | – | – | 20 ± 7 nM | 14 ± 2 nM | – | – | – | – | – | – | –
CCS(=O)(=O)Nc1ccc2c(c1)/C(=C(/Nc1ccc(CN3CCCCC3)cc1)c1ccccc1)C(=O)N2 [Hesperadin] | – | – | 60 ± 25 nM | 34 ± 11 nM | – | – | – | 250 nM | – | – | –
Nc1nc(Nc2ccc(S(N)(=O)=O)cc2)nn1C(=O)c1c(F)cccc1F [JNJ-7706621] | – | – | 24 ± 8 nM | 17 ± 2 nM | – | – | – | – | […] | […] | […]

— paper PMC4500090 (Biochemical and biophysical research communications, 2015)
